{"source": "paper PMC10877577", "about": "(ACS Chemical Biology, 2024)", "key": {"aMinoC1-peptide complex": {"system": "aMinoC1-peptide complex", "assay": "SPR rechallenge: small-molecule-driven dissociation of peptide-Fc from immobilized aMinoC1", "type": "binding", "settings": "peptide-Fc 100 nM, small molecule 1 μM", "experimental": "Binding assays were carried out using 1x HBS-EP+ running buffer. Various concentrations (2.5 μM with 2-fold serial dilutions) of the analyte were injected for 150 s at 30 μL/min with 150 s dissociation time. Glycine-HCl (pH 2.0) was used as the regeneration buffer for the sensor chips. For the rechallenge experiment, aMinoC1 was immobilized on a CM5 sensor chip and CX7C peptide-Fc conjugates were loaded at 100 nM and injected as the analyte for 150 s at 30 μL/min. Following the injection of peptide-Fc, a small molecule at 1 μM was injected for 300 s at 30 μL/min, using dual injection function on a Biacore 8k instrument, to dissociate the peptide-Fc from the aMinoC1-peptide complex. The system was then washed using HBS-P^+ buffer for 300 s at 30 μL/min prior to rechallenge with peptide-Fc. The cycle was repeated three times following a final dissociation step of 300 s. For the alanine scanning experiments, the anti-minocycline antibody (sdAb-muIgG2a-Fc fusion) was captured on a Protein A series S sensor chip, to a density of 3000 RU. […] Glycine-HCl (pH 1.5) was used as the regeneration buffer. In each case, flow cell 1 was used for reference subtraction, and a “0 concentration” sensogram of buffer alone was used as a double reference subtraction to factor for drift. Data analysis was carried out using Biacore T200 Evaluation Software, version 3.0, and Biacore Insight evaluation software. The 1:1 Langmuir binding model was used to calculate the association (ka), dissociation (kd) rate constants, and equilibrium dissociation constant (KD)."}, "[1]": {"system": "MinoCAR-transduced PBMC against SKOV3 EGFR+ target cells", "assay": "Tunability and reversibility assays (Incucyte kinetics of cytotoxicity)", "type": "cell-based, human", "settings": "minocycline 0 to 10 μM, 1:2 E/T", "procedure": "EGFR+ SKOV3-mKate cells were seeded at 1.0 × 10^4 cells per well in a TC-treated flat-bottomed 96-well plate. For reversibility experiments, MinoCAR ON–OFF kinetics were tested by preactivating CAR T cells by incubating cells for 2 h on plates precoated with recombinant EGFR (10 μg/mL). CAR T cells were washed using 15 mL of PBS prior to coculture. […] Cells were then washed using 15 mL of PBS prior to coculture. Untreated CAR T cells were used as a control and were directly preceded to coculturing set. […] The Incucyte ZOOM Live-Cell Analysis System was used to carry out image capture at a rate of one image every 1 h for 150 h. […] The image capture rate of each condition was set at 1 image per hour for 72 h."}, "[2]": {"system": "MinoUniCAR-transduced PBMCs against SupT1-EGFR+ cells", "assay": "MinoUniCAR cytotoxicity with EGFR-peptide adaptor", "type": "cell-based, human", "settings": "10 μM minocycline, 24 h, 1:2 E/T", "experimental": "(§1) Transduced CAR T cells were determined by staining for the transduction marker RQR8 and normalized by the addition of nontransduced T cells. Effector cells were cocultured with 5.0 × 10^4 number of target cells (SupT1-NT, SupT1-EGFR+, SKOV3-mKate) to achieve the desired effector cell to target ratio. Where appropriate, minocycline was supplemented as a part of the culture conditions. Cocultures were incubated for 24–72 h at 37 °C and 5% CO2. After incubation, plates were centrifuged at 400g for 5 min, and the supernatant containing secreted cytokines was collected for cytokine analysis. Cells were stained with anti-hCD34-APC and anti-CD3-PeCy7 to differentiate effector T cells and target cells. Cells were washed with 300 μL o PBS and stained with SYTOX Blue Dead Cell Stain dye. The percentage of target cell survival was measured relative to the number of live target cells cocultured with nonspecific CAR T cells or nontransduced PBMCs.\nTransduced PBMCs were stained using RQR8 expression and V5 markers. Cells were then normalized to 50% efficiency by diluting with nontransduced T cells. The tumor-targeting adaptor protein (EGFR sdAb) fused to the GWARA peptide was separately expressed by CHO cell transient transfection and purified by His-tag chromatography. […] IFN-γ secretion was measured as described above."}, "[3]": {"system": "MyD88/CD40 signaling in transduced PBMCs", "assay": "IFN-γ secretion of PBMCs with aMinoC1/GWARA-MyD88/CD40 module", "type": "cell-based, human", "settings": "increasing concentrations of minocycline", "experimental": "(§2) IFN-γ, IL2, and IL12 secretion was measured by collecting the supernatant from the respective cell-based assay and frozen at −20 °C prior to analysis by ELISA. IFN-γ, IL2, and IL12 ELISAs were carried out using the Human IFN-γ ELISA MAX Deluxe kit, Human IL2 ELISA MAX Deluxe kit, and Human IL12 (p70) ELISA MAX Deluxe kit in accordance with the manufacturer’s instructions (BioLegend)."}, "[4]": {"system": "MinoCAR-transduced PBMC against SupT1-EGFR+ target cells", "assay": "Cytokine release of MinoCAR PBMCs", "type": "cell-based, human", "settings": "minocycline supplementation, 24 h, 1:2 E/T", "experimental": "as §1, §2"}}, "note": "“Also recorded” adds a separate entry of the source.", "data": [{"smiles": "CN(C)c1ccc(O)c2c1C[C@H]1C[C@H]3[C@H](N(C)C)C(O)=C(C(N)=O)C(=O)[C@@]3(O)C(O)=C1C2=O", "note": "[minocycline]", "values": [{"measurement": "GWARA-Fc dissociation from immobilized aMinoC1 on small-molecule injection", "setting": "aMinoC1-peptide complex", "result": "acceleration of GWARA-Fc dissociation; also recorded: specifically reversed"}, {"measurement": "peptide-Fc (HWAQA, PWAYS and QWAMM) dissociation from immobilised aMinoC1 on small-molecule injection", "setting": "aMinoC1-peptide complex", "result": "acceleration"}, {"measurement": "SKOV3 target cell killing kinetics", "setting": "[1]", "result": "dose-dependent decrease in SKOV3 target cell killing"}, {"measurement": "target cell survival", "setting": "[2]", "result": 95, "unit": "%"}, {"measurement": "decrease of IFN-γ secretion", "setting": "[3]", "result": 2, "unit": "fold"}, {"measurement": "reduction (minus) of IFN-γ secretion", "setting": "[4]", "result": 2.7, "unit": "fold"}, {"measurement": "reduction (minus) of IL2 secretion", "setting": "[4]", "result": 1.9, "unit": "fold"}]}]}
